Test results from the supplement of paper PMC10307832.

Tests used:
Experiment in all cases: relative viability (nuclei count vs DMSO), 5 days (fraction); higher = more cells survive
[1] = compound: C1=CC=C2C(=C1)C=CC(=C2SSC3=C(C=CC4=CC=CC=C43)O)O [IPA-3] + CC(=O)c1c(C)c2cnc(Nc3ccc(N4CCNCC4)cn3)nc2n(C2CCCC2)c1=O [Palbociclib] (partner 0.5 µM)
In short: (§1)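 Relative viability is defined as nuclei in treated wells over nuclei in vehicle wells. Duplicate plates were run and medians reported. Lung cancer cell lines in 1536-well plates were dosed by pin tool one day after seeding, with one drug or with a fixed anchor-drug dose plus five library-drug doses (not always all listed) in √10 steps, and nuclei were counted after 5 days.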

[2] = compound: Cc1ccc(-n2nc(C(C)(C)C)cc2NC(=O)Nc2ccc(OCCN3CCOCC3)c3ccccc23)cc1 [Doramapimod] + CS(=O)(=O)CCNCc1ccc(-c2ccc3ncnc(Nc4ccc(OCc5cccc(F)c5)c(Cl)c4)c3c2)o1 [Lapatinib] (partner 2 µM)
In short: as §1

[3] = compound: Cc1ccc(-n2nc(C(C)(C)C)cc2NC(=O)Nc2ccc(OCCN3CCOCC3)c3ccccc23)cc1 [Doramapimod] + CC(C)C[C@H](NC(=O)[C@H](Cc1ccccc1)NC(=O)c1cnccn1)B(O)O [Bortezomib] (partner 0.002 µM)
In short: as §1

[4] = compound: Cc1ccc(-n2nc(C(C)(C)C)cc2NC(=O)Nc2ccc(OCCN3CCOCC3)c3ccccc23)cc1 [Doramapimod] + COc1cc2c(Oc3ccc(NC(=O)C4(C(=O)Nc5ccc(F)cc5)CC4)cc3F)ccnc2cc1OCCCN1CCOCC1 [Foretinib] (partner 0.25 µM)
In short: as §1

| Cell Line | relative viability ([1]; first compound 0.2 µM) | relative viability ([1]; first compound 0.6325 µM) | relative viability ([1]; first compound 2 µM) | relative viability ([1]; first compound 6.325 µM) | relative viability ([1]; first compound 20 µM) | relative viability ([2]; first compound 0.02 µM) | relative viability ([2]; first compound 0.06325 µM) | relative viability ([2]; first compound 0.2 µM) | relative viability ([2]; first compound 0.6325 µM) | relative viability ([2]; first compound 2 µM) | relative viability ([3]; first compound 0.02 µM) | relative viability ([3]; first compound 0.06325 µM) | relative viability ([3]; first compound 0.2 µM) | relative viability ([3]; first compound 0.6325 µM) | relative viability ([3]; first compound 2 µM) | relative viability ([4]; first compound 0.02 µM) | relative viability ([4]; first compound 0.06325 µM) | relative viability ([4]; first compound 0.2 µM) | relative viability ([4]; first compound 0.6325 µM) | relative viability ([4]; first compound 2 µM) |
| --- | --- | --- | --- | --- | --- | --- | --- | --- | --- | --- | --- | --- | --- | --- | --- | --- | --- | --- | --- | --- |
| HCC-827 | 0.559 | 0.475 | 0.484 | 0.53 | 0.568 | 0.2 | 0.272 | 0.17 | 0.352 | 0.201 | 0.963 | 1.03 | 1.01 | 0.931 | 0.969 | 1.07 | 1.06 | 1.13 | 1.04 | 0.703 |
| HOP-62 | 0.435 | 0.365 | 0.414 | 0.451 | 0.513 | 0.918 | 1.12 | 0.991 | 0.95 | 0.927 | 0.594 | 0.97 | 1.15 | 0.468 | 0.703 | 1.15 | 1.05 | 1.11 | 1.14 | 1.08 |
| LC-2-ad | 0.545 | 0.495 | 0.479 | 0.451 | 0.518 | 0.87 | 1.03 | 1.1 | 1.05 | 0.643 | 0.985 | 1.12 | 1.06 | 1.14 | 0.94 | 0.927 | 0.882 | 0.865 | 0.559 | 0.807 |
| LCLC-97TM1 | 0.23 | 0.2 | 0.226 | 0.185 | 0.177 | 0.859 | 0.792 | 1 | 1.05 | 0.853 | 0.587 | 1.27 | 0.905 | 0.378 | 0.521 | 0.842 | 1.02 | 0.895 | 0.94 | 0.819 |
| LOU-NH91 | 0.535 | 0.525 | 0.552 | 0.511 | 0.572 | 0.693 | 0.673 | 0.678 | 0.631 | 0.628 | 0.47 | 0.506 | 0.532 | 0.444 | 0.672 | 1.01 | 0.938 | 1.02 | 1.07 | 0.681 |
| LU99A | 0.437 | 0.376 | 0.425 | 0.452 | 0.394 | 0.959 | 1 | 0.981 | 1.1 | 0.897 | 1.03 | 1.15 | 1.12 | 1.15 | 0.922 | 0.791 | 0.781 | 0.914 | 0.801 | 0.724 |
| LXF-289 | 0.606 | 0.579 | 0.556 | 0.568 | 0.642 | 0.851 | 0.924 | 0.912 | 0.871 | 0.834 | 1.01 | 1.02 | 1.03 | 1.02 | 0.907 | 0.955 | 1.04 | 0.999 | 0.955 | 0.928 |
| NCI-H23 | 0.477 | 0.4 | 0.486 | 0.486 | 0.542 | 0.962 | 0.998 | 1.11 | 0.761 | 1.12 | 1.01 | 1.07 | 1.06 | 1.11 | 1.04 | 0.952 | 1.05 | 0.947 | 1.05 | 0.95 |
| NCI-H322M | 0.48 | 0.452 | 0.433 | 0.525 | 0.514 | 0.59 | 0.601 | 0.644 | 0.798 | 0.605 | 1.26 | 1.43 | 1.18 | 1.26 | 1.35 | 1.11 | 0.913 | 1.08 | 1.05 | 1.05 |
| NCI-H460 | 0.203 | 0.108 | 0.145 | 0.19 | 0.057 | 0.889 | 0.962 | 0.858 | 0.946 | 0.934 | 0.961 | 1.12 | 1.11 | 1.24 | 1.05 | 1.08 | 1.04 | 1.02 | 1.17 | 0.973 |
| NCI-H520 | 0.229 | 0.206 |  | 0.283 | 0.186 | 0.828 | 0.865 | 0.945 | 0.807 | 0.629 | 0.671 | 0.699 | 0.529 | 0.677 | 0.364 | 0.63 | 0.864 | 0.656 | 0.674 | 0.498 |
| NCI-H647 | 0.561 | 0.373 | 0.371 | 0.206 | 0.0359 | 0.789 | 1.09 | 1.21 | 1.06 | 0.826 | 1.13 | 0.985 | 0.912 | 1.05 | 0.861 | 0.903 | 1.07 | 1.25 | 1.29 | 1.16 |
| NCI-H650 | 0.373 | 0.361 | 0.323 | 0.361 | 0.426 | 1.03 | 0.938 | 1.43 | 0.921 | 0.844 | 0.882 | 1.11 | 1.03 | 0.737 | 0.874 | 1.07 | 1.12 | 1.18 | 1.08 | 1.03 |
| NCI-H661 | 0.406 | 0.434 | 0.389 | 0.435 | 0.366 | 0.477 | 0.438 | 0.48 | 0.588 | 0.413 | 0.793 | 0.794 | 0.719 | 0.942 | 0.667 | 1.05 | 1 | 1.02 | 1.04 | 0.989 |
| NCI-H727 | 0.671 | 0.784 | 0.644 | 0.63 | 0.625 | 0.969 | 0.731 | 0.815 | 0.778 | 0.933 | 0.853 | 0.818 | 0.775 | 0.705 | 0.87 | 0.665 | 0.857 | 0.857 | 1.05 | 0.801 |
| NCI-H838 | 0.278 | 0.202 | 0.209 | 0.225 | 0.204 | 0.982 | 0.996 | 1.19 | 1.27 | 0.843 | 1.05 | 0.965 | 1.01 | 1.22 | 0.73 | 1.01 | 0.993 | 1.08 | 1.21 | 1.01 |
